Data: PubChem BioAssay (NCI)
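These data come from cells grown in 96-well plates and exposed to compound for 48 hours at five concentrations. TGI: total growth inhibition.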

Experiments:
Assay in all cases: NCI-60 cell line screen, 48 h
[1] = test system: NCI-H23 lung
[2] = test system: U251 CNS
[3] = test system: KM12 colon
[4] = test system: 786-0 renal
[5] = test system: NCI-H226 lung
[6] = test system: ACHN renal
[7] = test system: MALME-3M melanoma
[8] = test system: LOX IMVI melanoma
[9] = test system: NCI/ADR-RES ovarian
[10] = test system: A549 NSCLC
[11] = test system: MDA-MB-435
[12] = test system: SNB-75 CNS
[13] = test system: MDA-MB-231 breast
[14] = test system: IGROV1 ovarian
[15] = test system: SK-MEL-2 melanoma
[16] = test system: A498 renal
[17] = test system: SF-295 CNS
[18] = test system: MCF7 breast
[19] = test system: EKVX NSCLC
[20] = test system: T-47D breast
[21] = test system: RXF 393 renal
[22] = test system: UO-31 renal
[23] = test system: M14 melanoma
[24] = test system: CAKI-1 renal
[25] = test system: MDA-N
[26] = test system: OVCAR-4 ovarian
[27] = test system: RPMI-8226 leukemia
[28] = test system: SW-620 colon
[29] = test system: UACC-257 melanoma
[30] = test system: PC-3 prostate
[31] = test system: CCRF-CEM leukemia
[32] = test system: SF-539 CNS
[33] = test system: HCC-2998 colon
[34] = test system: SNB-19 CNS
[35] = test system: COLO 205 colon
[36] = test system: TK-10 renal
[37] = test system: SK-OV-3 ovarian
[38] = test system: SN12C renal
[39] = test system: OVCAR-3 ovarian
[40] = test system: NCI-H522 lung
[41] = test system: OVCAR-5 ovarian
[42] = test system: SK-MEL-28 melanoma
[43] = test system: BT-549 breast
[44] = test system: HCT-15 colon
[45] = test system: SF-268 CNS
[46] = test system: HCT-116 colon
[47] = test system: NCI-H460 lung
[48] = test system: HOP-62 NSCLC
[49] = test system: OVCAR-8 ovarian
[50] = test system: UACC-62 melanoma
[51] = test system: SR leukemia
[52] = test system: K-562 leukemia
[53] = test system: HL-60(TB) leukemia
[54] = test system: SK-MEL-5 melanoma
[55] = test system: DU-145 prostate
[56] = test system: MOLT-4 leukemia
[57] = test system: HT29 colon
[58] = test system: HOP-92 NSCLC
[59] = test system: HS 578T breast

CC(C)=CC(O)C(C(O)CCC1(C)OCCO1)S(=O)(=O)c1ccccc1 (stereo not given)
TGI [1]: > 100 µM
TGI [2]: > 100 µM
TGI [3]: > 100 µM
TGI [4]: > 100 µM
TGI [5]: > 100 µM
TGI [6]: > 100 µM
TGI [7]: > 100 µM
TGI [8]: > 100 µM
TGI [9]: > 100 µM
TGI [10]: > 100 µM
TGI [11]: > 100 µM
TGI [12]: > 100 µM
TGI [13]: > 100 µM
TGI [14]: > 100 µM
TGI [15]: > 100 µM
TGI [16]: > 100 µM
TGI [17]: > 100 µM
TGI [18]: > 100 µM
TGI [19]: > 100 µM
TGI [20]: > 100 µM
TGI [21]: > 100 µM
TGI [22]: > 100 µM
TGI [23]: > 100 µM
TGI [24]: > 100 µM
TGI [25]: > 100 µM
TGI [26]: > 100 µM
TGI [27]: > 100 µM
TGI [28]: > 100 µM
TGI [29]: > 100 µM
TGI [30]: > 100 µM
TGI [31]: > 100 µM
TGI [32]: > 100 µM
TGI [33]: > 100 µM
TGI [34]: > 100 µM
TGI [35]: > 100 µM
TGI [36]: > 100 µM
TGI [37]: > 100 µM
TGI [38]: > 100 µM
TGI [39]: > 100 µM
TGI [40]: > 100 µM
TGI [41]: > 100 µM
TGI [42]: > 100 µM
TGI [43]: > 100 µM
TGI [44]: > 100 µM
TGI [45]: > 100 µM
TGI [46]: > 100 µM
TGI [47]: > 100000 nM
TGI [48]: > 100 µM
TGI [49]: > 100 µM

C=CCN(Cc1ccncc1)C(=O)C(O)(c1ccccc1)c1ccccc1
TGI [1]: > 100 µM
TGI [2]: > 100 µM
TGI [3]: > 100 µM
TGI [4]: > 100 µM
TGI [50]: > 100 µM
TGI [51]: > 100 µM
TGI [5]: > 100 µM
TGI [6]: > 100 µM
TGI [7]: > 100 µM
TGI [8]: > 100 µM
TGI [52]: > 100 µM
TGI [53]: > 100 µM
TGI [9]: 37.4 µM
TGI [10]: > 100 µM
TGI [11]: > 100 µM
TGI [12]: > 100 µM
TGI [13]: > 100 µM
TGI [14]: > 100 µM
TGI [17]: > 100 µM
TGI [18]: > 100 µM
TGI [19]: > 100 µM
TGI [20]: > 100 µM
TGI [21]: > 100 µM
TGI [22]: 56.5 µM
TGI [23]: > 100 µM
TGI [54]: > 100 µM
TGI [24]: > 100 µM
TGI [55]: > 100 µM
TGI [25]: > 100 µM
TGI [27]: 78.6 µM
TGI [28]: > 100 µM
TGI [29]: > 100 µM
TGI [30]: > 100 µM
TGI [31]: > 100 µM
TGI [32]: > 100 µM
TGI [33]: > 100 µM
TGI [34]: > 100 µM
TGI [35]: > 100 µM
TGI [36]: > 100 µM
TGI [37]: > 100 µM
TGI [56]: > 100 µM
TGI [57]: > 100 µM
TGI [38]: > 100 µM
TGI [39]: > 100 µM
TGI [40]: > 100 µM
TGI [41]: > 100 µM
TGI [42]: > 100 µM
TGI [43]: > 100 µM
TGI [44]: > 100 µM
TGI [45]: > 100 µM
TGI [46]: > 100 µM
TGI [48]: > 100 µM
TGI [49]: > 100 µM

C[n+]1c2ccccc2n2c3ccccc3c(NCCCN3CCOCC3)c(C#N)c21
TGI [1]: 8.08 µM
TGI [2]: > 28.4 µM
TGI [3]: 15.8 µM
TGI [4]: 8.32 µM
TGI [50]: 13.8 µM
TGI [58]: > 100 µM
TGI [51]: > 100 µM
TGI [5]: 6.2 µM
TGI [6]: > 25.5 µM
TGI [7]: 3.96 µM
TGI [8]: 2.64 µM
TGI [53]: > 100 µM
TGI [9]: > 76.8 µM
TGI [10]: 23.8 µM
TGI [11]: 14.1 µM
TGI [12]: 5.4 µM
TGI [13]: 4.94 µM
TGI [15]: 6.42 µM
TGI [16]: > 29 µM
TGI [17]: 14.8 µM
TGI [19]: 15.1 µM
TGI [20]: > 26.3 µM
TGI [21]: 3.91 µM
TGI [22]: 15.3 µM
TGI [23]: 2.85 µM
TGI [54]: 9.87 µM
TGI [24]: 8.38 µM
TGI [55]: 18.2 µM
TGI [25]: 2.9 µM
TGI [26]: 8.81 µM
TGI [28]: 36.6 µM
TGI [29]: 16.7 µM
TGI [30]: > 30 µM
TGI [31]: > 100 µM
TGI [32]: 3.57 µM
TGI [33]: 3 µM
TGI [34]: > 26.8 µM
TGI [35]: 3.15 µM
TGI [36]: 10.8 µM
TGI [37]: 31.9 µM
TGI [57]: > 100 µM
TGI [38]: 6.44 µM
TGI [39]: > 28.1 µM
TGI [40]: 2.25 µM
TGI [41]: 5.61 µM
TGI [42]: > 20.4 µM
TGI [43]: > 100 µM
TGI [44]: 19.4 µM
TGI [45]: 5.39 µM
TGI [46]: 8.32 µM
TGI [47]: 2750 nM
TGI [48]: > 33.5 µM
TGI [59]: 6.47 µM
